Reference: patent US4956389A, “Compounds having calcium blocking activity” (priority 1982, dated 1990)

Assays:
phosphodiesterase = assay: Inhibition of the phosphodiesterase activity (method of K. G. Nair); type: biochemical
Protocol: The inhibition of phosphodiesterase activity of YS 035 and of papaverine has been assessed according to the method of K. G. Nair (Biochemistry, 5, 150, 1966).
It has been used a medium containing:
2.5 ml of buffer tris-HCl 0.1M pH 7.4;
50 μl CAMP "Sigma" (1 mg/ml);
5 μl Adenosin deaminase (2 mg/ml);
20 μl of alkaline phosphatase "Sigma" (2.6 mg/ml);
15 μl of phosphodiesterase (10 mg/ml).
YS 035 has been added up to a final concentration of 100 mM and Papaverine to a concentration of 10 mM.

rats [1] = assay: Antagonistic effect to biochemical disturbances during the post-oligemic period in rats; type: in vivo, rat
Protocol: Oligemia in rats is caused by simultaneous bilateral occlusion of the carotid arteries associated with a slight decrease (8-9 kPa) of blood pressure and is maintained for 60 minutes. After removal of the occlusion, the post-oligemic period is followed for several days. In this case, the observation is continued up to the third day, at the time during which the brain accumulation of Ca^++ ions reaches the maximum.
The substances YS 035 or Nicardipine respectively, are administered to rats, 1, 5, 18, 24, 42 and 71 hours after having removed the carotid occlusion. The rats are sacrificed after 72 hours and the tissues are rapidly removed in order to determine their content of water, calcium and potassium.

dogs = assay: Effect on the myocardial infarct in the subacute phase in dogs (method of Harris); type: in vivo, dog; conditions: 0.1 mg/kg intravenously, three times within 48 hours
Protocol: The tying up of the […] coronary artery by the method of Harris causes the following effects:
The treatment with YS 035 in the dose of 0.1 mg/kg intravenously, carried after tying the coronary artery and three times within 48 hours in the same dose has provided the following results: […]

rats [2] = assay: Effect on the multiple cerebral infarct in rats (intracarotid sodium arachidonate); type: in vivo, rat; conditions: 15 minutes prior to the infarct
Protocol: The intracarotid injection of sodium arachidonate (0.1 mg) causes in rats an edema reaction accompanied by an accumulation of calcium in the brain tissue and a decrease, on the other hand, of the cholesterol level.

## COc1ccc(CCN(C)CCc2ccc(OC)c(OC)c2)cc1OC [YS 035, N-methyl-N-bis-(3,4-dimethoxy-phenyl-ethyl)amine]
phosphodiesterase; general statement
  inhibiting activity on the phosphodiesterases (in words): completely devoid of inhibiting activity on the phosphodiesterases
phosphodiesterase; up to a final concentration of 100 mM
  inhibition of phosphodiesterase activity (in words): completely inactive
Rats [1]; 3 mg·Kg^-1 P.O. 7×, 72 h, post-oligemic controls 28.2 ± 3.22
  Cerebral concentration, Ca++: 10.7 ± 2.46 mmol·Kg^-1 of dry substance
Rats [1]; 3 mg·Kg^-1 P.O. 7×, 72 h, post-oligemic controls 80.1 ± 0.37
  Cerebral concentration, H2O: 79.0 ± 0.44%
Rats [1]; 3 mg·Kg^-1 P.O. 7×, 72 h, post-oligemic controls 366.2 ± 12.58
  Cerebral concentration, K+: 420.0 ± 11.85 mmol·Kg^-1 of dry substance
Rats [1]; rat, in vivo
  intracellular accumulation of Ca++ ions (in words): reduce substantially
  seriousness of the cerebral edema (in words): capable of reducing the seriousness of the cerebral edema
dogs
  consumption of glucose in the myocardium (in words): not changed
  consumption of lactate (in words): has a tendency to return to normality
  consumption of oxygen (in words): increases substantially
  coronary blood flow (in words): remains similar to that of the control groups, or at the most tends to increase moderately
  coronary vascular resistance (in words): not only is reduced, but becomes inferior to that of the control group
  index of the aortic flow (in words): not changed
  index of work of the left ventricle (in words): significantly higher than that present in the dogs with the infarct
  ratio DPTI/TTI (in words): not changed
  uptake of the free fatty acids (in words): increases and reaches also a value twice the basal flow measured in healthy control animals
Rats [2]; 1 mg/kg intravenously
  entry of calcium in brain tissue (in words): reduces moderately the entry of calcium
Rats [2]; intravenously, 1, 3.3 and 10 mg/kg
  other changes at the biochemical level (in words): no effect
